# Tests used:
# [1] = target: T1, VMAT2 expressed by β-cells of the endocrine pancreas (Rattus norvegicus, UniProt Q01827); assay: PET imaging with [11C]DTBZ of normal and STZ induced diabetic Lewis rats; assay type: in vivo
# T1 construct: The inventors next targeted VMAT2 expressed by β-cells of the endocrine pancreas with [11C]; DTBZ; from tissue; host or cells: pancreas (beta cells of the islets) of living Lewis rats, normal and STZ-induced diabetic
# Description: Specific activities of carbon-11 labeled radiotracers were >2000 mCi/μmol at the time of injection.
# STZ solution was prepared fresh by dissolving it in 0.1 M citrate buffer (pH 5.5) and terminally sterile filtered. Age and weight-matched control rats were injected with citrate buffer alone.
# PET scans were performed on four normal and three diabetic adult rat subjects. Prior to imaging, the animals were anesthetized with intraperitoneal injections of ketamine and xylazine. After a whole-body transmission scan had been obtained (used to perform attenuation correction of the emission data), the radioligand was taken up in a sterile saline vehicle and 200-300 μCi of [11C] DTBZ was administered in a bolus injection via the penile vein. PET scans of the animals were acquired dynamically to 60 min postinjection on a Concorde microPET-R4 (CTI Molecular Imaging, Knoxville, Tenn., USA). The scanner provided a 100×80 mm field of view with a reconstructed resolution of 2.25 mm in the central 40 mm of the field of view. PET data were processed using attenuation correction matrix obtained by transmission scans and images were reconstructed using Fourier re-binning, followed by two-dimensional, filtered back projection. […]
# VMAT2 = settings: previous studies (Scherman et al.); cited from earlier work
# [2] = test system: islet membranes (purified human islets); assay: binding of [3H]DTBZ to total membrane fractions from purified human islets
# Text: (§1) Previous studies, at both protein and nucleic acid levels, have shown the underlying physiochemical basis for this functional similarity (Atouf, et al, 1997, Expression of neuronal traits in pancreatic beta cells. Implication of neuron-restrictive silencing factor/repressor element silencing transcription factor, a neuron-restrictive silencer, J Biol Chem 272:1929-1934, Bernal-Mizrachi, et al, 2003, Gene expression profiling in islet biology and diabetes research, Diabetes Metab Res Rev 19:32-42, and […] al, 1996, Differentiation and growth of pancreatic beta cells, Diabetes Metab 22:223-228). The inventors own gene expression mapping studies led them to focus on one such shared gene product, VMAT2, vesicular monoamine transporter type 2, expressed by β-cells, but absent from the exocrine pancreas and a variety of-the other abdominal organs ([…], et al, 2004, Identification of tissue-restricted transcripts in human islets, Endocrinology 145:4513-4521). A specific ligand for VMAT2, dihydrotetrabenazine (DTBZ) is already in clinical use for positron emission tomography (PET) imaging of central nervous system disorders (Vander Borght, et al, 1995, In vivo imaging of the brain vesicular monoamine transporter, J Nucl Med 36:2252-2260). The inventors studied the binding of [3H]DTBZ to total membranes fractions prepared from purified human islets and purified exocrine pancreas tissue.
# [3] = test system: membranes from the exocrine pancreas; assay: binding of [3H]DTBZ to total membrane fractions from purified exocrine pancreas tissue; parameters: species or system human
# Text: as §1
# endocrine pancreas = assay: serial PET imaging with [11C]DTBZ in the spontaneously diabetic BB-DP rat model; assay type: in vivo; settings: series of ten BB-DP rats, compared with IPGTT
# Description: Blood samples were collected from the rat tail vein. The blood glucose (BG) levels of the rats were monitored daily using an Accu-Check blood glucose monitoring system (Roche Diagnostics, Somerville, N.J.). […] After baseline BG measurements, animals received an intraperitoneal injection of 1 g glucose/kg body wt. BG concentrations were measured again 5, 10, 15, 30, 60, and 120 min later. Animals were considered diabetic when four consecutive BG values were above 300 mg/dL and had abnormal IPGTT responses. Animals were imaged at baseline before the development of diabetes at day 45.
# PET scans were performed serially on the study subject at approximately day 50 and then every two weeks until the animals developed stable diabetes. Prior to imaging, the animals were anesthetized with intrapertioneal injections of ketamine and xylazine. After a whole-body transmission scan had been obtained (used to perform attenuation correction of the emission data), the radioligand was taken up in a sterile saline vehicle and 200-300 μCi of [11C] DTBZ was administered in a bolus injection via the penile vein. PET scans of the animals were acquired dynamically to 60 min post injection on a Concorde microPET-R4 (CTI Molecular Imaging, Knoxville, Tenn., USA). The scanner provided a 100×80 mm field of view with a reconstructed resolution of 2.25 mm in the central 40 mm of the field of view. […]
# T1 sequence (Q01827 whole entry): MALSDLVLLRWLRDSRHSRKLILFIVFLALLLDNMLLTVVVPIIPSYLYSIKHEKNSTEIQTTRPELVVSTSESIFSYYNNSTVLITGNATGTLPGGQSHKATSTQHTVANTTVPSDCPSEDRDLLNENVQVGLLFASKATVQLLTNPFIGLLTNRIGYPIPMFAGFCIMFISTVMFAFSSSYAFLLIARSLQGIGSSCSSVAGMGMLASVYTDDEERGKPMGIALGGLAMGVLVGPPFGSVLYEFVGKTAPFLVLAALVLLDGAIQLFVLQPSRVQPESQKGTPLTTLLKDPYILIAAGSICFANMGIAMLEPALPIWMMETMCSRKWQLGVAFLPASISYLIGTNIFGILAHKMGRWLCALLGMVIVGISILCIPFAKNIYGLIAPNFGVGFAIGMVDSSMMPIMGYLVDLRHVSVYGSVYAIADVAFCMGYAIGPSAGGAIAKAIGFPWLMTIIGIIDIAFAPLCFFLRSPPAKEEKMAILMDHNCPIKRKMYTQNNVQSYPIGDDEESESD
smiles,measurement,setting,value
"COc1cc2c(cc1OC)[C@H]1C[C@@H](O)[C@H](CC(C)C)CN1CC2 [DTBZ, dihydrotetrabenazine]",DTBZ uptake in gastric and splenic regions of the pancreas compared to the head of the organ,"[1]; normal rat pancreata, PET",higher
same,time post-injection up to which pancreatic DTBZ uptake increased monotonically,"[1]; normal rat, 60 min imaging period, from 1 minute",about 50 minutes
same,target specificity of DTBZ,VMAT2,specifically targets VMAT2
COc1cc2c(cc1OC)[C@H]1C[C@@H](O)[C@H](CC(C)C)CN1CC2 [[3H]DTBZ],binding of [3H]DTBZ to islet membranes,[2],specifically bound
same,binding of [3H]DTBZ to membranes from the exocrine pancreas,[3],not
"COc1cc2c(cc1O[11CH3])CCN1CC(CC(C)C)C(O)CC21 (stereo not drawn) [[11C]DTBZ, [11C] dihydrotetrabenazine]",reduction of [11C]DTBZ uptake that resulted in signs of glucose intolerance and hyperglycemia,endocrine pancreas,approximately 50%

# From patent publication US20090202428A1, “Use of Dtbz for Imaging Endocrine Pancreas and Beta Cell Mass In Type 1 Diabetes” (priority 2005, published 2009)
